Assay results from publication PMC7721796, “Molecular basis of regio- and stereo-specificity in biosynthesis of bacterial heterodimeric diketopiperazines” (Nature Communications, 2020).
Substitutions are numbered along the chain they refer to.

Experiments:
NasF5053 (NascF5053) [1] = target: T1, NasF5053 (NascF5053) (Streptomyces sp. NRRL F-5053, UniProt A0A8I3B027, S284A/V288A); test: UV-Vis difference spectra, Soret shift, hyperbolic fit; conditions: read-out: binding constant
T1 construct: codon-optimised gene in pET28a, E. coli BL21(DE3); heme protein
T1 sequence (A0A8I3B027 1-398 S284A/V288A): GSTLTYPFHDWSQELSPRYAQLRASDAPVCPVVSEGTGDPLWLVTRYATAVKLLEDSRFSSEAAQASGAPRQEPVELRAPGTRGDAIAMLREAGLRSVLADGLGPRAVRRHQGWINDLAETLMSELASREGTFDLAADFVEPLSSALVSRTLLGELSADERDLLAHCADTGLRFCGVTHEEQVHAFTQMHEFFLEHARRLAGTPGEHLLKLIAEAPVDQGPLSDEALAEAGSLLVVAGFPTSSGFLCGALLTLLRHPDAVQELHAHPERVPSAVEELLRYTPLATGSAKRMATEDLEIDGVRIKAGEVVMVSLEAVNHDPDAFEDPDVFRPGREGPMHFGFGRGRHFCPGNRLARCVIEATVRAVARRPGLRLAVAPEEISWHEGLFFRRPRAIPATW

NasF5053 (NascF5053) [2] = target: T2, NasF5053 (NascF5053) (Streptomyces sp. NRRL F-5053, UniProt A0A8I3B027); test: as above; conditions: read-out: binding constant
T2 construct: codon-optimised gene in pET28a, E. coli BL21(DE3); heme protein
T2 sequence (A0A8I3B027 entry or part of it): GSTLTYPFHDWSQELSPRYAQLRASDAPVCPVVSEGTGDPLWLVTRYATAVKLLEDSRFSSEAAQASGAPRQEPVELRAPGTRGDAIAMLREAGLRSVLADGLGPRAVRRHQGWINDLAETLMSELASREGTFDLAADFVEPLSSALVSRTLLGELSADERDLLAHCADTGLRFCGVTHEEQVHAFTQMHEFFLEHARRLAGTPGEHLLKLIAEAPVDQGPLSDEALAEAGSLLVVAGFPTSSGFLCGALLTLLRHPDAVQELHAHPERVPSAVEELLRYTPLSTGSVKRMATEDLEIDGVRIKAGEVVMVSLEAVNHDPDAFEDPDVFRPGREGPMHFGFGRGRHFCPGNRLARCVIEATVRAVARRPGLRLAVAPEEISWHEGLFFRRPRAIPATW

NasbB = target: T3, NasbB (Streptomyces sp., UniProt A0A7T3QX21); assay type: biochemical; conditions: […] substrate, […] P450, spinach Fd/FdR, NADPH recycling, pH […] °C, […] h; product NAS-B
T3 construct: codon-optimised gene in pMS1, Mycobacterium smegmatis mc2 155
T3 sequence (A0A7T3QX21 1-422): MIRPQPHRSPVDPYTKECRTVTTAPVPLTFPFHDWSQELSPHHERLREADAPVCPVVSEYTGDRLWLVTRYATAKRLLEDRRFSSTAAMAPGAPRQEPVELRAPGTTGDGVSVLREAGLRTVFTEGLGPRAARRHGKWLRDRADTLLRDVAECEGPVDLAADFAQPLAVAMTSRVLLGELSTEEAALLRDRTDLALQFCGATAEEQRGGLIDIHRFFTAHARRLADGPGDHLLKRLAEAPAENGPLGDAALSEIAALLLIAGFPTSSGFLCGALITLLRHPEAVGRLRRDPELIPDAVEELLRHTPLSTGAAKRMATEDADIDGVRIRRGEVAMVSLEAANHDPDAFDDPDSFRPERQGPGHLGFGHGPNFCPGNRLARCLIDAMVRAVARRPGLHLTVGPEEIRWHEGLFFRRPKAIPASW

NasS1868 = target: T4, NasS1868 (Streptomyces sp. NRRL S-1868, UniProt A0ACD6BAV5); test: product formation by UHPLC-MS; assay type: biochemical; conditions: 1 mM substrate, 0.1 µM P450, spinach Fd/FdR, NADPH recycling, pH 7.5, 4 °C, 24 h; product aspergilazine A
T4 construct: codon-optimised gene in pMS1, Mycobacterium smegmatis mc2 155
T4 sequence (A0ACD6BAV5 1-401): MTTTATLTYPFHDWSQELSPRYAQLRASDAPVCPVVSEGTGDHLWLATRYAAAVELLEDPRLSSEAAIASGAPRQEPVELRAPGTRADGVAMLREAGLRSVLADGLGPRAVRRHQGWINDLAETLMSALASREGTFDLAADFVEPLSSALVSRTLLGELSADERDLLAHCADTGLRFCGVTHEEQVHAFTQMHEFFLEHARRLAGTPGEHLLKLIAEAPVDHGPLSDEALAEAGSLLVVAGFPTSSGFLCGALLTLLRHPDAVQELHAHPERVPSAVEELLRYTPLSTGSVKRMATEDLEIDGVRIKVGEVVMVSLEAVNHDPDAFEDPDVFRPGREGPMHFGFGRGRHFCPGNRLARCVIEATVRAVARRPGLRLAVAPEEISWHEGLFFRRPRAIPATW

NasF5053 (NascF5053) [3] = target: T5, NasF5053 (NascF5053) (Streptomyces sp. NRRL F-5053, UniProt A0A8I3B027, A86G/Q65I); test: UV-Vis difference spectra, Soret shift, hyperbolic fit; conditions: read-out: binding constant
T5 construct: codon-optimised gene in pET28a, E. coli BL21(DE3); heme protein
T5 sequence (A0A8I3B027 1-398 Q65I/A86G): T1 sequence (A0A8I3B027 1-398 S284A/V288A) with Q65I, A86G, A284S, A288V

For `O=C1N[C@@H](Cc2c[nH]c3ccccc23)C(=O)N2CCC[C@@H]12` [cWL-PL], the Kd (NasF5053 (NascF5053) [1]) was 4.81 ± 0.26 µM, the Kd (NasF5053 (NascF5053) [2]) was 11.6 ± 2.1 µM and the “product formation by UHPLC-MS” value (NasbB) was “NasbB was confirmed to efficiently dimerize the cWL-PL into NAS-B”. The “product formation by UHPLC-MS” value (NasS1868) was “NasS1868 can convert cWL-PL into Asp-A” and the Kd (NasF5053 (NascF5053) [3]) was 25.6 ± 1 µM.
